The assay relates to solid malignancy. As to the kind of experiment: Dose escalation study in patients, best response / tumor shrinkage. The class given is in vivo, human. As to the method: Pharmacokinetic studies and dose escalation studies were conducted in adult patients with metastatic, recurrent, locally, advanced, or unresectable solid malignancy (patients with histologically and/or cytologically confirmed solid malignancy), who received prior anti-cancer treatment(s) until disease progression, at 10 different dose levels of Compound I. Groups 1-7 were administered intravenously on days 1 and 8 of a 4-week cycle at 50, 100, 150, 200, 250, 325, and 475 mg/m^2 (lyophilized formulation), respectively. Groups 8-10 were administered intravenously on days 1,8, and 15 of a 4-week cycle at 325, 475, and 650 mg/m^2 (lyophilized formulation), respectively. Each patient received each dose over 1 hour by IV infusion on days described above.
The duration on therapy at each dose level for evaluable patients is depicted in FIG. 8.
In the study described in Example 3, 18 patients were diagnosed with metastatic breast cancer. […] This study was conducted to evaluate predictive biomarkers of response to Compound I and to explore the relationship between germline HRD aberrations and outcomes of Compound I treatments.
In the study described in Example 3, 12 patients harbored BRCA1 or BRCA2 mutation. From the same group of 12 patients harboring BRCA1 or BRCA2 mutation, 8 patients had breast cancer (FIG. 5). Of the 8 patients, 6 patient harbored BRCA2 mutation and had breast cancer (FIG. 6). In FIGS. 4-6, each bar represents an individual in a treatment Group as indicated by the Group number corresponding to the treatment Groups in Example 3.

The mark [1] stands for this setting: of the 40 patients treated, 34 discontinued.

Regarding `Cc1cnc(CNC(=O)c2c(=O)c3ccc(N4CCCN(C)CC4)nc3n3c2sc2ccccc23)cn1` [Compound I, 2-(4-Methyl-[1,4]diazepan-1-yl)-5-oxo-5H-7-thia-1,11b-diaza-benzo[c]fluorene-6-carboxylic acid (5-methyl-pyrazin-2-ylmethyl)-amide], the “Response of a patient who harbored a PALB2 mutation” value (Group 10, 650 mg/m^2, CT scans, 6-month follow-up) is on record as “partial response (PR)”. Under setting [1], the “Patients discontinued due to objective progressive disease” value worked out at 29 and the “Patients discontinued due to symptomatic progression of disease” value is given as 4. Under “of the 40 patients treated, 2 with breast cancer, 4 germline BRCA2, 2 somatic BRCA1/2”, the “Patients with stable disease as best response for >4 cycles” value was 6 patients. For the same compound, the “Patients with confirmed partial response as best response” value (of the 40 patients treated, 3 with breast cancer, 2 germline BRCA2, 1 germline BRCA2 VUS, germline PALB2) was 4 patients. Also, for the setting “only 2 of them had BRCA2 mutations”, the “Outcome in 8 patients who had received prior PARP inhibitor therapy” value is given as “all had early progression after ≤2 cycles”. Also, the “Dose at which patients with BRCA2 mutation responded, tumor shrinkage observed” value (patients with BRCA2 mutation) was “greater than or equal to 150 mg/m^2”.

The record behind these values is US20210046071A1, “TETRACYCLIC COMPOUNDS AND THEIR SALTS, COMPOSITIONS, AND METHODS FOR THEIR USE” (Senhwa Biosciences, Inc., priority 2019, published 2021).
